Paper PMC8553340, “USP28 deletion and small-molecule inhibition destabilizes c-MYC and elicits regression of squamous cell lung carcinoma” (eLife, 2021)

Target: T1, ubiquitin-specific protease 28 (USP28) (Homo sapiens, UniProt Q96RU2)
T1 construct: endogenous, NCI-H520 cell extracts and intact cells
T1 sequence (Q96RU2 1-1077): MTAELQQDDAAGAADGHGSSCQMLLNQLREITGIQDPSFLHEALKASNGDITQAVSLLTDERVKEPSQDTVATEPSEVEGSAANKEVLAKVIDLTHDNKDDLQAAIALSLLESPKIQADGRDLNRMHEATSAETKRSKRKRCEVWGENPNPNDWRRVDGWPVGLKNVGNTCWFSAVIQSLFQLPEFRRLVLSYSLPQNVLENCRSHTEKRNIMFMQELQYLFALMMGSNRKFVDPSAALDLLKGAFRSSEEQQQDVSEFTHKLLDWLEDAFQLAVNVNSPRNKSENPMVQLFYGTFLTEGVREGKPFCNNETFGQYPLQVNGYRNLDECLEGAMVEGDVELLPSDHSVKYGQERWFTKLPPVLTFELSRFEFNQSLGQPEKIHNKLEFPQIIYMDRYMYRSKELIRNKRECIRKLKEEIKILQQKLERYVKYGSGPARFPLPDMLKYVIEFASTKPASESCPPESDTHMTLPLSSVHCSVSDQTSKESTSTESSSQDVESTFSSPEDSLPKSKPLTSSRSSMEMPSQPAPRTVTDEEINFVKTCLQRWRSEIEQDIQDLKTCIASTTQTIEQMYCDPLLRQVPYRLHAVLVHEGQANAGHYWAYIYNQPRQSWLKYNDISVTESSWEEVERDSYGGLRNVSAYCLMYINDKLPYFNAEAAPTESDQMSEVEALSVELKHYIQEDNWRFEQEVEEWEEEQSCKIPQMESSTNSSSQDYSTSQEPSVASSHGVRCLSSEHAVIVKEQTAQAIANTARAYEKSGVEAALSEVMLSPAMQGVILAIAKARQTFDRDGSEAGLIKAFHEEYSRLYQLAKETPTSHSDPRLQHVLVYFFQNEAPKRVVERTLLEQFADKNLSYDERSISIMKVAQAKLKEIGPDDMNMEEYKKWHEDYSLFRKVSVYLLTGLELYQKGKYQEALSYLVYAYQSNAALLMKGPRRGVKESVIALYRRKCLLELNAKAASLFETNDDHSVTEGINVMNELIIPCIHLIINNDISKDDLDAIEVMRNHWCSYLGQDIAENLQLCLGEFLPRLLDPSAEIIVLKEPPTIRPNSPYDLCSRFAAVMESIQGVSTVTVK
Experiment: competition with HA-UbPA activity-based probe labelling (Western blot) in NCI-H520 extract and cells; ABPP mass spectrometry
Assay type: biochemical

**Q.** `Cc1ccc2c(N)c(C(=O)N[C@H]3CCc4cc(N5CC6CCC(C5)N6)ccc4C3)sc2n1` [FT206] was tested. Which EC50 did it give?
**A.** 300 to 1000 nM
